# Measurements as given in ChEMBL document CHEMBL1130219, “Structure-activity relationships of 2'-deoxy-2',2'-difluoro-L-erythro-pentofuranosyl nucleosides” (J Med Chem, 1997).
# What was measured:
# [1] = Antiviral activity against human immunodeficiency virus type-1 (HIV-1) in PBM cells; assay type: functional, cell-based; settings: PBMC
# Vero = test: Compound was evaluated for its toxicity by […] assay in vero cells; assay type: functional, cell-based; settings: Chlorocebus sabaeus
# CCRF-CEM = test: Compound was evaluated for its toxicity by […] assay in CEM; assay type: functional, cell-based; settings: Homo sapiens
# Hepatitis B virus = test: Antiviral activity against Hepatitis-B virus 2.2.15(HBV); assay type: functional, organism-based; settings: HepG2 2.2.15
# Human alphaherpesvirus 2 = test: Antiviral activity against Herpes simplex virus type-2; assay type: functional, organism-based
# Human alphaherpesvirus 1 = test: Antiviral activity against Herpes simplex virus type-1; assay type: functional, organism-based
# [2] = Compound was evaluated for its toxicity by […] assay in PBM; assay type: functional, Homo sapiens
EC50 [1] [µM],EC50 (Hepatitis B virus) [µM],EC50 (Human alphaherpesvirus 2) [µM],EC50 (Human alphaherpesvirus 1) [µM],SMILES,IC50 (Vero) [µM],IC50 (CCRF-CEM) [µM],IC50 [2] [µM]
> 100,> 10,> 100,> 100,Nc1nc(=O)n([C@@H]2O[C@@H](CO)[C@H](O)C2(F)F)cc1I,> 100,> 100,> 100
> 100,> 10,> 100,> 100,O=c1[nH]c(=O)n([C@@H]2O[C@@H](CO)[C@H](O)C2(F)F)cc1F,100,> 100,> 100
> 100,> 20,> 100,> 100,Nc1ncnc2c1ncn2[C@@H]1O[C@@H](CO)[C@H](O)C1(F)F,> 100,> 100,> 100
3.4,> 20,> 100,> 100,Nc1ncnc2c1ncn2[C@H]1O[C@@H](CO)[C@H](O)C1(F)F,> 100,> 100,> 100
> 100,> 10,> 100,> 100,Nc1nc(=O)n([C@H]2O[C@@H](CO)[C@H](O)C2(F)F)cc1I,> 100,> 100,> 100
> 100,> 10,> 100,> 100,O=c1[nH]c(=O)n([C@H]2O[C@@H](CO)[C@H](O)C2(F)F)cc1F,> 100,> 100,> 100

SMILES,EC50 [1] [µM],EC50 (Hepatitis B virus) [µM],EC50 (Human alphaherpesvirus 2) [µM],EC50 (Human alphaherpesvirus 1) [µM],IC50 (Vero) [µM],IC50 (CCRF-CEM) [µM],IC50 [2] [µM]
Cc1cn([C@H]2C[C@H](N=[N+]=[N-])[C@@H](CO)O2)c(=O)[nH]c1=O [ZIDOVUDINE],0.004,> 10,> 100,> 100,29,13,> 100
